According to patent publication US10494384B2, “Urea peptoid boric acid compound, pharmaceutical composition thereof, preparation method therefor, and uses thereof” (Peking University, priority 2015, dated 2019):

Columns and labels:
A549, human lung cancer = assay: preliminary anti-tumor screening in vitro, SRB method; type: cell-based; conditions: read-out: inhibition rates (%) A549
Procedure: (§1) The test methods used in this test example are routine methods for anti-tumor activities test in pharmaceutical area, for example, referring to the following reference: (J. Immunol Method, 1983, 65, 55).
(§2) Test models: A: MTT method (Hela, human cervical carcinoma); B: SRB method (BGC-823, […]); C: SRB method (MCF-7, breast cancer); D: SRB method (A549, human lung cancer); E: SRB method (PC3M1E8, prostate cancer).
(§3) Inhibition rates of the compounds were measured under concentrations of 0.1 μM, 1 μM or 10 μM.

BGC-823, liver cancer = assay: as above; type: cell-based; conditions: Homo sapiens, read-out: inhibition rates (%) BGC-823
Procedure: as §1, §2, §3

MCF-7, breast cancer = assay: as above; type: cell-based; conditions: Homo sapiens, read-out: inhibition rates (%) MCF-7; for inhibition at 0.1 µM: MCF7, 0.1 μM; for inhibition at 1 µM: MCF7, 1 μM; for inhibition at 10 µM: MCF7, 10 μM
Procedure: as §1, §2, §3

[1] = target: T1, 20S proteasome extracted from rat liver (PGPH) (Rattus norvegicus, UniProt P28073+Q9JHW0); assay: inhibition of 20S proteasome, PGPH activity (fluorescent peptide); type: biochemical; conditions: rat liver 20S proteasome, 37° C., 1 h, read-out: inhibition rates (%) PGPH
T1 construct: 20S proteasome extracted from rat liver; from tissue; host or cells: rat liver
Procedure: (§4) 1 μg of 20S proteasome extracted from rat liver was incubated with a 100 μL solution containing various concentrations of the present compounds, 50 μM fluorescent peptides and 20 mM Tris-HCl at 37° C. for 1 h, respectively. […] 0.1% DMSO was used as a solvent control. Compared with the fluorescence of solvent control, an inhibition rate or IC50 value was calculated.

[2] = target: T2, 20S proteasome extracted from rat liver (CT-L) (Rattus norvegicus, UniProt P18421+P28075); assay: inhibition of 20S proteasome, CT-L activity (fluorescent peptide); type: biochemical; conditions: rat liver 20S proteasome, 37° C., 1 h, read-out: inhibition rates (%) CT-L
T2 construct: 20S proteasome extracted from rat liver; from tissue; host or cells: rat liver
Procedure: as §4

[3] = tested on: Hela, human cervical carcinoma; assay: preliminary anti-tumor screening in vitro, MTT method; type: cell-based; conditions: read-out: inhibition rates (%) Hela
Procedure: as §1, §2, §3

[4] = target: T3, 20S proteasome extracted from rat liver (T-L) (Rattus norvegicus, UniProt P40112+Q9JHW0); assay: inhibition of 20S proteasome, T-L activity (fluorescent peptide); type: biochemical; conditions: rat liver 20S proteasome, 37° C., 1 h, read-out: inhibition rates (%) T-L
T3 construct: 20S proteasome extracted from rat liver; from tissue; host or cells: rat liver
Procedure: as §4

SMILES | inhibition at 0.1 µM (A549, human lung cancer) [%] | inhibition at 1 µM (A549, human lung cancer) [%] | inhibition at 10 µM (A549, human lung cancer) [%] | inhibition at 0.1 µM (BGC-823, liver cancer) [%] | inhibition at 1 µM (BGC-823, liver cancer) [%] | inhibition at 10 µM (BGC-823, liver cancer) [%] | inhibition at 0.1 µM (MCF-7, breast cancer) [%] | inhibition at 1 µM (MCF-7, breast cancer) [%] | inhibition at 10 µM (MCF-7, breast cancer) [%] | inhibition at 0.2 µM [1] [%] | inhibition at 2 µM [1] [%] | inhibition at 20 µM [1] [%] | inhibition at 0.2 µM [2] [%] | inhibition at 2 µM [2] [%] | inhibition at 20 µM [2] [%] | inhibition at 0.1 µM [3] [%] | inhibition at 1 µM [3] [%] | inhibition at 10 µM [3] [%] | inhibition at 0.2 µM [4] [%] | inhibition at 2 µM [4] [%] | further results
CC(C)C[C@H](NC(=O)N[C@@H](Cc1ccccc1)C(=O)Nc1cnccn1)B(O)O [Example 6, N-L-leucine borate-N′-(pyrazin-2-ylcarbamoyl)-L-phenylalanine-urea] | -6.94 | -3.91 | 7.01 | 4.88 | 4.4 | 8.98 | 0.8 | 1.9 | 6.05 | 17.4 | 66.3 | 93.8 | -0.67 | 44.7 | 86.8 | 1.74 | 4.43 | 16.9 | -3.92 | 2.41 | inhibition at 20 µM [4]: 27.2%
CC(C)C[C@H](NC(=O)CNC(=O)Nc1cc(Cl)ccc1Cl)B(O)O [Example 22, N-glycyl-L-leucine borate-N′-(2,5-dichloro-phenylamine)-urea] | 1.88 | 28.3 | 65.6 | 2.04 | 9.01 | 44.5 | 7.17 | 12.7 | 42.2 | 10.1 | 7.17 | 5.29 | 62 | 89.7 | 93.3 | 8.66 | 19.7 | 43.4 | -3.95 | 28.3 | inhibition at 20 µM [4]: 53.1%
CC(C)C[C@H](NC(=O)[C@H](Cc1ccccc1)NC(=O)Nc1cnccn1)B(O)O [Example 17, N-L-phenylalanyl-L-leucine borate-N′-(pyrazin-2-ylamine)-urea] | 5.46 | 40.9 | 66 | 7.89 | 27.1 | 52.7 | 8.29 | 26.2 | 37.6 | 3.75 | 8.57 | 94.5 | 10.5 | 87.3 | 95.8 | 12.1 | 34.6 | 51.5 | -3.77 | 10.5 | inhibition at 20 µM [4]: 57.3%
CC(C)C[C@H](NC(=O)[C@H](Cc1ccccc1)NC(=O)[C@H](Cc1ccccc1)NC(=O)Nc1cccc(OCc2ccccc2)c1)B(O)O [Example 23, N-L-phenylalanyl-L-phenylalanyl-L-leucine borate-N′-(3-benzyloxy-phenylamine)-urea] | 32.7 | 68.8 | 81.3 | 43.2 | 42.7 | 81.6 | 23.7 | 56 | 73 | -13.7 | -20.5 | -20.3 | 49.5 | 91 | 94.2 | 17.4 | 42.5 | 75.7 | -0.748 | 47.2 | inhibition at 20 µM [4]: 90.5%
COc1ccc(NC(=O)[C@H](Cc2ccccc2)NC(=O)N[C@@H](CC(C)C)B(O)O)cc1 [Example 8, N-L-leucine borate-N′-(p-methoxy-phenylcarbamoyl)-L-phenylalanine-urea] | 1.01 | 8.26 | 39.2 | 4.74 | 5.62 | 15.6 | 4.54 | 8.51 | 16.4 | 1.62 | 7.36 | 63.1 | 2.87 | 59.7 | 89.4 | 12.7 | 13.4 | 32.9 | -1.39 | 9.32 | inhibition at 20 µM [4]: 30.6%
